Test results from patent publication US20240025862A1, “SUBSTITUTED N-PHENYLURACILS AND SALTS THEREOF, AND USE THEREOF AS HERBICIDAL ACTIVE SUBSTANCES” (Bayer Aktiengesellschaft, priority 2020, published 2024).

Assays:
Assay type in all cases: in vivo
[1] = system: Abutilon theophrasti (ABUTH); experiment: Post-emergence herbicidal action, greenhouse pot test; details: rated visually after about 3 weeks vs untreated controls, 100% = plants have died
Procedure, shortened: (§1)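 Activity was scored by eye about 3 weeks after treatment against untreated plants, where 100% means dead plants and 0% means no difference. Plants at the one-leaf stage received a foliar spray of WP or EC formulations in water plus 0.5% additive (600 l/ha, up to 20 g/ha). Plants were grown in sandy loam pots in a greenhouse for 2–3 weeks before spraying.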

[2] = system: Amaranthus retroflexus (AMARE); experiment: as above; details: rated visually after about 3 weeks vs untreated controls, 100% = plants have died
Procedure, shortened: as §1

[3] = system: Pharbitis purpurea (PHBPU); experiment: as above
Procedure, shortened: as §1

[4] = system: Polygonum convolvulus (POLCO); experiment: as above
Procedure, shortened: as §1

Stellaria media (STEME) = experiment: as above
Procedure, shortened: as §1

Veronica persica (VERPE) = experiment: as above
Procedure, shortened: as §1

Viola tricolor (VIOTR) = experiment: as above
Procedure, shortened: as §1

[5] = system: Alopecurus myosuroides (ALOMY); experiment: Post-emergence herbicidal action, greenhouse pot test (also comparative test C); details: 20 g/ha, rated visually after about 3 weeks vs untreated controls, 100% = plants have died
Procedure, shortened: (§2)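 Visual rating against untreated controls, about 3 weeks after spraying, from 0% (like control) to 100% (plants dead). Weeds were treated at the one-leaf stage, 2–3 weeks after sowing in sandy loam, with aqueous WP/EC spray containing 0.5% additive at 600 l/ha. Doses were ≤20 g/ha, or ≤5 g/ha for comparative test C.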

[6] = system: Echinochloa crus-galli (ECHCG); experiment: as above; details: dosage 20 g/ha
Procedure, shortened: as §2

[7] = system: Matricaria inodora (MATIN); experiment: as above
Procedure, shortened: as §2

Setaria viridis (SETVI) = experiment: as above
Procedure, shortened: as §2

Glycine max (GLXMA) = experiment: Post-emergence crop plant compatibility, greenhouse pot test
Procedure, shortened: (§3)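 Values are visual % damage versus untreated controls (100% = plants died) about 3 weeks after treatment. Plants in sandy loam were sprayed at the one-leaf stage, 2–3 weeks after sowing, with aqueous WP/EC preparations plus 0.5% additive at 600 l/ha; a/b/c mark different dose levels.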

[8] = system: Triticum aestivum (TRZAS); experiment: as above; details: 1.25 g/ha, vs untreated controls
Procedure, shortened: as §3

Zea mays (ZEAMX) = experiment: as above; details: vs untreated controls
Procedure, shortened: as §3

Oryza sativa (ORYSA) = experiment: Post-emergence crop plant compatibility, greenhouse pot test (also comparative test C); details: vs untreated controls
Procedure, shortened: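 Visual damage versus untreated plants (0% = like control, 100% = plants died) was scored about 3 weeks after a post-emergence spray in greenhouse pots. Treatment: one-leaf stage, WP or EC in water at 600 l/ha with 0.5% additive; a/b/c mark different dosages on the same crop.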

- Post-emergence action against GLXMA in % (Glycine max (GLXMA); 1.25 g/ha): 10%
- Post-emergence action against GLXMA in % (Glycine max (GLXMA); 5 g/ha): 20%
- Post-emergence action against TRZAS (crop plant compatibility) [8]: 20%
- Post-emergence action against ZEAMX (crop plant compatibility) (Zea mays (ZEAMX); 1.25 g/ha): 10%
- Post-emergence action against ZEAMX (crop plant compatibility) (Zea mays (ZEAMX); 5 g/ha): 20%
- Post-emergence action against ORYSA (crop plant compatibility) (Oryza sativa (ORYSA); 1.25 g/ha): 10%
- Post-emergence action against ORYSA (crop plant compatibility) (Oryza sativa (ORYSA); 5 g/ha): 20%
SMILES: Cn1c(C(F)(F)F)cc(=O)n(-c2cc(Sc3ccccc3OCC(=O)OCC3CCOC3)c(Cl)cc2F)c1=O (racemic) [I.1-72]
- Post-emergence action at 1.25 g/ha against ABUTH in % ([1]; 1.25 g/ha): 100%
- Post-emergence action at 5 g/ha against ABUTH in % ([1]; 5 g/ha): 100%
- Post-emergence action at 20 g/ha against ABUTH in % ([1]; 20 g/ha): 100%
- Post-emergence action at 1.25 g/ha against AMARE in % ([2]; 1.25 g/ha): 80%
- Post-emergence action at 5 g/ha against AMARE in % ([2]; 5 g/ha): 100%
- Post-emergence action at 20 g/ha against AMARE in % ([2]; 20 g/ha): 100%
- Post-emergence action against PHBPU in % ([3]; dosage 1.25 g/ha): 80%
- Post-emergence action against PHBPU in % ([3]; dosage 5 g/ha): 100%
- Post-emergence action against PHBPU in % ([3]; dosage 20 g/ha): 100%
- Post-emergence action against POLCO in % ([4]; dosage 1.25 g/ha): 80%
- Post-emergence action against POLCO in % ([4]; dosage 5 g/ha): 100%
- Post-emergence action against POLCO in % ([4]; dosage 20 g/ha): 100%
- Post-emergence action against STEME (Stellaria media (STEME); 5 g/ha): 100%
- Post-emergence action against STEME (Stellaria media (STEME); 20 g/ha): 100%
- Post-emergence action against VERPE (Veronica persica (VERPE); 1.25 g/ha): 100%
- Post-emergence action against VERPE (Veronica persica (VERPE); 5 g/ha): 100%
- Post-emergence action against VERPE (Veronica persica (VERPE); 20 g/ha): 100%
- Post-emergence action against VIOTR (Viola tricolor (VIOTR); 1.25 g/ha): 100%
- Post-emergence action against VIOTR (Viola tricolor (VIOTR); 5 g/ha): 100%
- Post-emergence action against VIOTR (Viola tricolor (VIOTR); 20 g/ha): 100%
- Post-emergence action at 20 g/ha against ALOMY in % [5]: 80%
- Post-emergence action against ECHCG in % [6]: 100%
- Post-emergence action against MATIN in % ([7]; dosage 5 g/ha): 90%
- Post-emergence action against MATIN in % ([7]; dosage 20 g/ha): 100%
- Post-emergence action against SETVI (Setaria viridis (SETVI); 20 g/ha): 100%
- Post-emergence action against SETVI in % (Setaria viridis (SETVI); dosage 1.25 g/ha): 100%
- Post-emergence action against SETVI in % (Setaria viridis (SETVI); dosage 5 g/ha): 100%
